In patent publication EP0414175A2, “Use of xanthine derivatives to reduce nephrotoxicity” (HOECHST AKTIENGESELLSCHAFT, priority 1989, dated 1991):

Assays:
Mäuse = assay: Mortality of mice after repeated intravenous injections, 42-day observation; conditions: 30 daily i.v. injections, 5 consecutive days per block, 4 blocks, 2 treatment-free days between, Amphotericin B 4 mg/kg, xanthine derivatives 20 mg/kg each, dissolved in 5 % aqueous glucose solution
[1] = Pathophysiological serum findings (nephrotoxicity markers) in mice after repeated intravenous treatment; type: in vivo, Mäuse; conditions: serum of mice, treated 9 times intravenously within 11 days; pooled sera of 3 mice each; Pentoxifyllin 20 mg/kg, Amphotericin B 4 mg/kg
Experimental: Es wurden Mäuse im Verlauf von 11 Tagen 9 mal intravenös mit Pentoxifyllin (20 mg/kg), Amphotericin B (4 mg/kg) und Amphotericin B (4 mg/kg) in Kombination mit Pentoxifyllin (20 mg/kg) sowie mit einer Lösungsmittelkontrolle behandelt. Zur Beurteilung der Nephrotoxizität der jeweils verabreichten Substanzen wurden bei den Versuchstieren folgende Stoffe bestimmt: Creatinin: Eine gestörte Creatininclearance durch eine geschädigte Niere führt zu einem erhöhten Gehalt von Creatinin im Serum (Hypercreatininaemie) Harnstoff : Erhöhte Konzentrationen im Serum werden regelmäßig bei einer schweren Nierenfunktionsstörung beobachtet. Eine verminderte Harnstoffclearance führt zu einem erhöhten Gehalt im Serum Kalium: Da Kaliumionen bis zu 95 % durch die Nieren ausgeschieden werden, ist eine Hyperkaliaemie ein deutliches Zeichen für eine schwere Nierenfunktionsstörung. Tabelle 1

Nieren = assay: Histopathological examination of kidneys of intravenously treated mice (PAS staining); type: in vivo, Mäuse; conditions: mice treated i.v. over 11, 25, 39 or 53 days; Pentoxifyllin 20 mg/kg, Amphotericin B 4 mg/kg; 4 animals per time point; compared with glucose solvent control
Experimental: Weiterhin läßt sich die nephrotoxizitätssenkende Wirkung der Xanthinderivate durch histologische Untersuchung von Versuchstieren feststellen.
Dazu wurden […] Mäuse mit Glukose, Pentoxifyllin (20 mg/kg), Amphotericin B (4 mg/kg) oder der Kombination von Pentoxifyllin/Amphotericin B (20 mg/kg bzw. 4 mg/kg) über einen Zeitraum von 11, 25, 39 oder 53 Tagen intravenös behandelt.
Nach den angegebenen Versuchszeiten wurden je 4 Tiere getötet und Serum für serologische Untersuchungen entnommen. Die Nieren wurden in Bouin'schem Gemisch fixiert, nach üblicher histologischer Technik aufgearbeitet und PAS-gefärbt.

Compound	Mortalitäten nach einer Beobachtungszeit von 42 Tagen (Mäuse)	Creatinin [1] [µmol/L]	Harnstoff [1]	Kalium [1]	histopathologische Untersuchungen der Nieren (Nieren)
Cn1c(=O)n(CCCCC(C)(C)O)c(=O)c2[nH]cnc21 [1-(5-Hydroxy-5-methyl-hexyl)-3-methylxanthin]	0 von 25 Mäusen gestorben	–	–	–	–
CCOCn1cnc2c1c(=O)n(CCCCC(C)(C)O)c(=O)n2C [7-Ethoxymethyl-1-(5-hydroxy-5-methylhexyl)-3-methyl-xanthin]	0 von 25 Mäusen gestorben	–	–	–	–
C[C@@H]1[C@H](O)[C@@H](C)/C=C/C=C/C=C/C=C/C=C/C=C/C=C/[C@H](O[C@@H]2O[C@H](C)[C@@H](O)[C@H](N)[C@@H]2O)C[C@@H]2O[C@](O)(C[C@@H](O)C[C@@H](O)[C@H](O)CC[C@@H](O)C[C@@H](O)CC(=O)O[C@H]1C)C[C@H](O)[C@H]2C(=O)O [Amphotericin B]	73 von 92 Mäusen gestorben	55	10,5 mmol/l	10,1 mmol/l	erhebliche Schäden des tubulären Apparats
CC(=O)CCCCn1c(=O)c2c(ncn2C)n(C)c1=O [Pentoxifyllin, 3,7-Dimethyl-1-(5-oxohexyl)xanthin]	0 von 25 Mäusen gestorben	–	–	–	–
